Assay results: patent publication US7547440B2, “T-cell epitope peptides” (Meiji Dairies Corporation, priority 1996, dated 2009)

Tested on: T-cell line stimulated by Cha o 2 from patients with Japanese cypress pollinosis
Assay: Growth response ([3H]thymidine uptake) of Cha o 2-stimulated T-cell lines to overlapping peptides
Assay type: cell-based, human
Settings: Cha o 2 overlapping peptides, final concentration 1 μM; T-cell lines from 20 patients; FIG. 5, FIG. 8
Description: To obtain the T-cell epitope peptides of the present invention, overlapping peptides that cover the entire primary structures of Cha o 1 and Cha o 2 were synthesized; each peptide consists of the adequate number of amino acid residues (12 to 20 residues). The peptide of the present invention stimulates and/or suppresses the activity of T cells derived from patients with pollinosis caused by tree pollens in springtime. In other words, the peptide of the present invention can induce proliferation of T cells or responses of T cells such as secretion of lymphokines, and/or can induce T-cell anergy (non-responsiveness). T-cell epitope sites on the allergen molecules can be identified using T-cell growth as an index in accordance with the method described in JP-A-Hei 8-47392. In particular, T-cell lines or T-cell clones, which are specifically reactive with Cha o 1 and Cha o 2, are established for every patient from peripheral lymphocytes of a patient with Japanese cypress pollinosis. The T-cell lines or T-cell clones are cultured in the presence of each peptide of the overlapping peptides. The epitope sites are identified by measuring the proliferation of T cells in the presence of the peptide (e.g., uptake of [^3H]thymidine into the cells) and calculating a stimulation index. […] Based on the data obtained thus, a mean stimulation index for each peptide is calculated for each patient group. […]

In the case of “2-14: overlapping peptide of Japanese cypress pollen allergen Cha o 2, 20 residues (ARWKNSKIWLQFAQLTDFNL)”, the “T-cell stimulating activity (contains at least one T-cell epitope)” value is reported as “possess a T-cell stimulating activity”.
